Usually IC50 stands for the concentration that inhibits the measured activity by half.

Structures are written as SMILES. Residues, ends and D or L forms follow the SMILES beside them. *: point of attachment. Cbz = O=C(OCc1ccccc1)*; CH2F = FC*

These results are taken from patent US20220354811A1, “METHODS AND COMPOSITIONS FOR MODULATING MACROPHAGES POLARIZATION” (INSERM (INSTITUT NATIONAL DE LA SANTÉ ET DE LA RECHERCHE …, priority 2019, published 2022).

The target in experiment [1] is caspase-8 (Homo sapiens, UniProt Q14790). Briefly: Recombinant caspase-8 activity in vitro (Ac-IETD-AMC substrate). It counts as biochemical. The arrangement: using active recombinant proteins of caspase-8 and caspase-3; purchased Enzo life sciences ALX-201-062. The note with it: recombinant caspase-8, Ac-IETD-AMC. An excerpt:
FIG. 4. […] (A) Measures of caspase-8 activity (IETD-AMC). IETD-CHO treatment is used as positive control in the in vitro assay. The results are expressed as A.U./min and represent the mean of 3 independent experiments realized in duplicate (B) Measures of caspase-3 activity (DEVD-AMC). DEVD-CHO is used as positive control in the in vitro assay. The results are expressed as A.U./min and represent the mean of 3 independent experiments realized in duplicate. Human CSF-1 was purchased from Miltenyi (130-096-493). […] Mouse caspase-8 was from R&D Systems (AF705). HRP-conjugated rabbit anti-goat was purchased from Dako ([…]) and HRP-conjugated goat anti-rabbit was from Cell Signaling (5127). Active recombinant caspase-8 (ALX-201-062) and -3 (ALX-201-059) were from Enzo life sciences. […] Each assay (in triplicate) was performed with 10 μg of protein prepared from control or stimulated cells. […] Enzyme activities were expressed in arbitrary units (A.U.) per min and per mg of proteins. The same protocol was used with 0.25 units of active recombinant caspase-8 (Enzo, ALX-201-062) or -3 (Enzo, ALX-201-059) in each triplicate.

The test system of experiment [2] is human primary monocytes. The note with it: literature (Jacquel et al., Blood 2009, Sci Reports 2018); cited from earlier work.

Chain of caspase-8 (Q14790 217-374 limits assumed): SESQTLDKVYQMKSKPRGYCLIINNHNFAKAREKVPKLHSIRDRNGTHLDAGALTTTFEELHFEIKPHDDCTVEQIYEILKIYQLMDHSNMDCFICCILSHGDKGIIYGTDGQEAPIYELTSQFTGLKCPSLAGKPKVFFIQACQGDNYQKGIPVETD
Chain of caspase-8 (Q14790 385-479 limits assumed): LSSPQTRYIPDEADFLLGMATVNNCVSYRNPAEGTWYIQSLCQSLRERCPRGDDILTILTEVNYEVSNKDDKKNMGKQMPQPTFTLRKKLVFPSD

`CC[C@H](C)[C@H](NC(C)=O)C(=O)N[C@@H](CCC(=O)O)C(=O)N[C@H](C(=O)N[C@H](C=O)CC(=O)O)[C@@H](C)O` [Ac-IETD-CHO] (Ac-IETD-aldehyde): in experiment [1], the IC50 turned out to be 15 nM.
Regarding `COC(=O)C[C@H](NC(=O)[C@H](C)NC(=O)[C@@H](NC(=O)OCc1ccccc1)C(C)C)C(=O)CF` [z-VAD-fmk] (Cbz-Val-Ala-Asp(OMe)-CH2F), in experiment [2], the “effect on CSF-1-induced monocyte differentiation” value was “inhibits”.
